The nature of series [1]: in vivo. The following applies: C57BL/6, mouse, kidney, sc, 5 mg/kg.
Series [2] is described as follows: in vivo. The following applies: C57BL/6, mouse, kidney, sc, 5 mg/kg. This is another data set of the same source.

In series [1], `Cc1ccccc1C(=O)Nc1ccc(C(=O)N2CCCC(O)c3cc(Cl)ccc32)c(C)c1` (configuration not stated) [TOLVAPTAN] yielded a concentration at 1 h of 3900 ng/g. Moreover, the concentration at 0.5 h in series [2] is 6100 ng/g.

Source of the values: ChEMBL document CHEMBL5143707, “Benzodiazepine Derivatives as Potent Vasopressin V2 Receptor Antagonists for the Treatment of Autosomal Dominant Kidney Disease” (J Med Chem, 2022).
